From US8263606B2 (Xenon Pharmaceuticals Inc., priority 2008, dated 2012)

How the values were obtained:
CYP3A4 = CYP3A4 (Homo sapiens, UniProt P08684); experiment: Cytochrome P450 (CYP450) Inhibition Assay, CYP3A4 (Vivid fluorescence, BOMCC substrate); details: human, P450 Baculosomes (recombinant CYP3A4), probe BOMCC (Vivid substrate)
sodium channel = experiment: Guanidine influx assay (14C-guanidine radiotracer flux, in vitro); format: cell-based, human or rat; details: guanidine influx assay using a known cell line that expresses a sodium channel
Summary of the method: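 Radiotracer read-out: intracellular 14C-guanidine counted after washing with guanidine-supplemented low-sodium buffer. Cells expressing human or rat channels get test agent plus aconitine activator and tracer, incubated at ambient temperature. Dilution series centred on 1 μM; IC50 by sigmoidal dose-response fit.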

CYP3A4, sequence (P08684 whole entry): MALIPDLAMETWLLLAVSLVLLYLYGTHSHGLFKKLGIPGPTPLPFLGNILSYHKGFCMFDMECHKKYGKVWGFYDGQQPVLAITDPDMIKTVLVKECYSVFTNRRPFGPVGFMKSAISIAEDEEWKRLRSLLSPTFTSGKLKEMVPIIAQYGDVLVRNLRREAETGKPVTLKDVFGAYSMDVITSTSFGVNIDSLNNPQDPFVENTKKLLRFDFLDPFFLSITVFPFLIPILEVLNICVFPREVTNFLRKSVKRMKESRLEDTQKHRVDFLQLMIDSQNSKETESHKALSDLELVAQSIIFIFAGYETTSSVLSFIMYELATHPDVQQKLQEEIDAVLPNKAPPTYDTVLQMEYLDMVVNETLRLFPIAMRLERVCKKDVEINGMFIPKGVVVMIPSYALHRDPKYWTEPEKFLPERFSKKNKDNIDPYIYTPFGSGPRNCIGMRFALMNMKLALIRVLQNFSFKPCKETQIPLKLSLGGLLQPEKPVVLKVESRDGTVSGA

| melting point [°C] | inhibition at 10 µM (CYP3A4) [%] | IC50 (sodium channel; activity level class) [µM] | IC50 (sodium channel) [µM] | SMILES |
| --- | --- | --- | --- | --- |
| 192 to 195 | – | – | 1 to 10 | O=C(O)c1ccc(CN2C(=O)C3(COc4cc5c(cc43)OCCO5)c3ccccc32)o1 (centres unmarked) [Example 11.32, 5-[(2′-oxo-2,3-dihydrospiro[furo[2,3-g][1,4]benzodioxine-8,3′-indol]-1′(2′H)-yl)methyl]furan-2-carboxylic acid] |
| 238 to 239 | < 50 | 0.1 to 1 | – | CC(C)(C)OC(=O)Nc1ccc(CN2C(=O)C3(COc4cc5c(cc43)OCCO5)c3ccccc32)cn1 (centres unmarked) [Example 9.40, tert-butyl {5-[(2′-oxo-2,3-dihydrospiro[furo[2,3-g][1,4]benzodioxine-8,3′-indol]-1′(2′H)-yl)methyl]pyridin-2-yl}carbamate] |
| 205 to 207 | < 50 | 0.001 to 0.1 | – | O=C1N(Cc2ccccn2)c2c(F)cccc2C12COc1cc3c(cc12)OCCO3 (centres unmarked) [Example 8.15, 7′-fluoro-1′-(pyridin-2-ylmethyl)-3,7-dihydro-2H-spiro[benzofuro[5,6-b][1,4]dioxine-8,3′-indolin]-2′-one] |
| 69 to 71 | < 50 | 0.001 to 0.1 | – | N#Cc1ccc(CN2C(=O)C3(COc4cc5c(cc43)CCO5)c3ccccc32)cc1 (centres unmarked) [Example 4.23, 4-((2′-oxo-5,6-dihydro-2H-spiro[benzofuro[6,5-b]furan-3,3′-indoline]-1′-yl)methyl)benzonitrile] |
| 249 to 251 | < 50 | – | 0.1 to 1 | Cc1ccc(NC(=O)c2ccc(CN3C(=O)C4(COc5cc6c(cc54)CCO6)c4ccccc43)cc2)c(C)c1 (centres unmarked) [Example 12.37, N-(2,4-dimethylphenyl)-4-[(2′-oxo-5,6-dihydrospiro[benzo[1,2-b:5,4-b′]difuran-3,3′-indol]-1′(2′H)-yl)methyl]benzamide] |
| 179 to 181 | – | – | 0.1 to 1 | O=C1N(C[C@H](O)CO)c2ccccc2C12COc1cc3c(cc12)OCCO3 (stereo partly drawn) [Example 40, 1′-[(2S)-2,3-dihydroxypropyl]-2,3-dihydrospiro[furo[2,3-g][1,4]benzodioxine-8,3′-indol]-2′(1′H)-one] |
| 132 to 134 | – | 1 to 10 | – | O=C1N(Cc2ccccn2)c2ccccc2C12COc1ccc3c(c12)OCCO3 (centres unmarked) [Example 4.127, 1-(pyridin-2-ylmethyl)-2,3-dihydrospiro[furo[3,2-f][1,4]benzodioxine-9,3′-indol]-2′(1′H)-one] |
| 219 to 221 | > 50 | – | – | CN1C(=O)C2(COc3cc4c(cc32)OCCO4)c2c(Oc3ccccn3)cccc21 (centres unmarked) [Example 16.53, 1′-methyl-4′-(pyridin-2-yloxy)-2,3-dihydrospiro[furo[2,3-g][1,4]benzodioxine-8,3′-indol]-2′(1′H)-one] |
| 212 to 214 | < 50 | – | – | CN1C(=O)C2(COc3cc4c(cc32)OCCO4)c2c1cccc2-n1ccccc1=O (centres unmarked) [Example 16.18, 1′-methyl-4′-(2-oxopyridin-1(2H)-yl)-2,3-dihydrospiro[furo[2,3-g][1,4]benzodioxine-8,3′-indol]-2′(1′H)-one] |
| 242 to 244 | < 50 | – | – | CN1C(=O)C2(COc3cc4c(cc32)OCCO4)c2c(C(=O)N3CCCC3)cccc21 (centres unmarked) [Example 16.41, 1′-methyl-4′-(pyrrolidin-1-ylcarbonyl)-2,3-dihydrospiro[furo[2,3-g][1,4]benzodioxine-8,3′-indol]-2′(1′H)-one] |

The remaining lines, values behind:

| SMILES | melting point [°C] | inhibition at 10 µM (CYP3A4) [%] | IC50 (sodium channel; activity level class) [µM] | IC50 (sodium channel) [µM] |
| --- | --- | --- | --- | --- |
| O=C1N(Cc2ccccc2C(F)(F)F)c2ccccc2[C@@]12COc1cc3c(cc12)OCCO3 [Example 4.114, (8R)-1′-[2-(trifluoromethyl)benzyl]-2,3-dihydrospiro[furo[2,3-g][1,4]benzodioxine-8,3′-indol]-2′(1′H)-one] | 137 to 138 | < 50 | 0.1 to 1 | – |
| CC(C)N1CCC(CN2C(=O)C3(COc4cc5c(cc43)OCCO5)c3ccccc32)CC1.Cl (centres unmarked) [Example 11.100, 1′-{[1-(1-methylethyl)piperidin-4-yl]methyl}-2,3-dihydrospiro[furo[2,3-g][1,4]benzodioxine-8,3′-indol]-2′(1′H)-one hydrochloride] | 213 to 216 | > 50 | – | 1 to 10 |
| O=C1N(Cc2ncccc2Br)c2ccccc2C12COc1cc3c(cc12)OCCO3 (centres unmarked) [Example 11.78] | 217 to 218 | < 50 | – | 0.001 to 0.1 |
| O=C1Nc2ccccc2C12COc1cc3c(cc12)OCCO3 (centres unmarked) [Example 3.10, 2,3-dihydrospiro[furo[2,3-g][1,4]benzodioxine-8,3′-indol]-2′(1′H)-one] | > 250 | < 50 | 0.001 to 0.1 | – |
| CCCCNC(=O)c1ccccc1CN1C(=O)C2(COc3cc4c(cc32)CCO4)c2ccccc21 (centres unmarked) [Example 12.18, N-butyl-2-[(2′-oxo-5,6-dihydrospiro[benzo[1,2-b:5,4-b′]difuran-3,3′-indol]-1′(2′H)-yl)methyl]benzamide] | 176 to 178 | > 50 | – | 1 to 10 |
| O=C1N(Cc2noc(C3CC3)n2)c2cccc(Cl)c2C12COc1cc3c(cc12)OCO3 (centres unmarked) [Example 11.20, 4′-chloro-1′-[(5-cyclopropyl-1,2,4-oxadiazol-3-yl)methyl]spiro[furo[2,3-f][1,3]benzodioxole-7,3′-indol]-2′(1′H)-one] | 180 to 182 | > 50 | – | 0.001 to 0.1 |
| O=C1N(Cc2ccc(C(F)(F)F)o2)c2c(C(F)(F)F)cccc2C12COc1cc3c(cc12)OCO3 (centres unmarked) [Example 4.74, 7′-(trifluoromethyl)-1′-{[5-(trifluoromethyl)-2-furyl]methyl}spiro[furo[2,3-f][1,3]benzodioxole-7,3′-indol]-2′(1′H)-one] | 95 to 98 | > 50 | 0.1 to 1 | – |
| O=C1N(Cc2ncc(F)cc2F)c2ccccc2C12COc1cc3c(cc12)OCCO3 (centres unmarked) [Example 4.104, 1-[(3,5-difluoropyridin-2-yl)methyl]-2,3-dihydrospiro[furo[2,3-g][1,4]benzodioxine-8,3′-indol]-2′(1′H)-one] | 220 to 222 | < 50 | 0.001 to 0.1 | – |
| Cc1nc(-c2cccc(CN3C(=O)C4(COc5cc6c(cc54)OCCO6)c4ccccc43)c2)no1 (centres unmarked) [Example 11.83, 1′-[3-(5-methyl-1,2,4-oxadiazol-3-yl)benzyl]-2,3-dihydrospiro[furo[2,3-g][1,4]benzodioxine-8,3′-indol]-2′(1′H)-one] | 90 to 95 | > 50 | – | 0.001 to 0.1 |
| O=C1Nc2ccccc2C12COc1c(Cl)cc3c(c12)OCCO3 (centres unmarked) [Example 3.42, 6-chloro-2,3-dihydrospiro[furo[3,2-f][1,4]benzodioxine-9,3′-indol]-2′(1′H)-one] | 255 to 257 | < 50 | 1 to 10 | – |
| COc1cc(OC)nc(CN2C(=O)C3(COc4cc5c(cc43)OCCO5)c3ccccc32)n1 (centres unmarked) [Example 5.33, 1′-[(4,6-dimethoxypyrimidin-2-yl)methyl]-2,3-dihydrospiro[furo[2,3-g][1,4]benzodioxine-8,3′-indol]-2′(1′H)-one] | 169 to 170 | > 50 | 0.001 to 0.1 | – |
| COc1cc2c(cc1C)C1(CO2)C(=O)N(CC2CCCCO2)c2ccccc21 (centres unmarked) [Example 4.63, 6-methoxy-5-methyl-1′-(tetrahydro-2H-pyran-2-ylmethyl)spiro[1-benzofuran-3,3′-indol]-2′(1′H)-one] | 180 to 182 | > 50 | 1 to 10 | – |
| CC(C)c1cc(CN2C(=O)C3(COc4cc5c(cc43)OCO5)c3ccccc32)on1 (centres unmarked) [Example 1.6, 1′-[(3-isopropylisoxazol-5-yl)methyl]spiro[furo[2,3-f][1,3]benzodioxole-7,3′-indol]-2′(1′H)-one] | 132 to 136 | > 50 | 0.001 to 0.1 | – |
| C[C@@H](CN1C(=O)C2(COc3cc4c(cc32)CCO4)c2ccccc21)OCc1ccccc1 (stereo partly drawn) [Example 14.1, 1′-[(2S)-2-(benzyloxy)propyl]-5,6-dihydrospiro[benzo[1,2-b:5,4-b′]difuran-3,3′-indol]-2′(1′H)-one] | 45 to 47 | > 50 | – | 0.1 to 1 |
| O=C1N(C(c2ccccc2)c2ccccc2)c2cccc(F)c2C12COc1cc3c(cc12)OCCO3 (centres unmarked) [Example 2.44, 1′-(diphenylmethyl)-4′-fluoro-2,3-dihydrospiro[furo[2,3-g][1,4]benzodioxine-8,3′-indol]-2′(1′H)-one] | 196 to 198 | – | 0.1 to 1 | – |
| CCC(=O)Nc1cccc2c1C1(COc3cc4c(cc31)OCCO4)C(=O)N2C (centres unmarked) [Example 16.29, N-(1′-methyl-2′-oxo-1′,2,2′,3-tetrahydrospiro[furo[2,3-g][1,4]benzodioxine-8,3′-indol]-4′-yl)propanamide] | 224 to 226 | < 50 | – | – |
| CN1C(=O)C2(COc3cc4c(cc32)OCCO4)c2c(O)cccc21 (centres unmarked) [Example 16.52, 4′-hydroxy-1′-methyl-2,3-dihydrospiro[furo[2,3-g][1,4]benzodioxine-8,3′-indol]-2′(1′H)-one] | > 250 | < 50 | – | – |
| O=C1N(Cc2nccnc2C(F)(F)F)c2ccccc2C12COc1cc3c(cc12)OCCO3 (centres unmarked) [Example 5.11, 1′-{[3-(trifluoromethyl)pyrazin-2-yl]methyl}-2,3-dihydrospiro[furo[2,3-g][1,4]benzodioxine-8,3′-indol]-2′(1′H)-one] | 230 to 232 | < 50 | – | – |
